Where two headings read alike, the source gives them in different places.
Assays:
[1] = tested on: genotype 1a-H77 subgenomic replicon cell line; assay: HCV Polymerase Replicon Assay, genotype 1a-H77 (luciferase reporter); type: cell-based; settings: Hepatitis C virus, 72 h, read-out: EC50 1a
[2] = tested on: genotype 1b-Con1 subgenomic replicon cell line; assay: HCV Polymerase Replicon Assay, genotype 1b-Con1 (luciferase reporter); type: cell-based; settings: Hepatitis C virus, 72 h, read-out: EC50 1b
[3] = target: T1, HCV polymerase 1A (Δ21 NS5B, H77) (Hepatitis C virus genotype 1a, UniProt P27958); assay: biochemical
T1 construct: 20 to 50 nM Δ21 NS5B
T1 sequence (P27958 2421-2990, stated change not applied): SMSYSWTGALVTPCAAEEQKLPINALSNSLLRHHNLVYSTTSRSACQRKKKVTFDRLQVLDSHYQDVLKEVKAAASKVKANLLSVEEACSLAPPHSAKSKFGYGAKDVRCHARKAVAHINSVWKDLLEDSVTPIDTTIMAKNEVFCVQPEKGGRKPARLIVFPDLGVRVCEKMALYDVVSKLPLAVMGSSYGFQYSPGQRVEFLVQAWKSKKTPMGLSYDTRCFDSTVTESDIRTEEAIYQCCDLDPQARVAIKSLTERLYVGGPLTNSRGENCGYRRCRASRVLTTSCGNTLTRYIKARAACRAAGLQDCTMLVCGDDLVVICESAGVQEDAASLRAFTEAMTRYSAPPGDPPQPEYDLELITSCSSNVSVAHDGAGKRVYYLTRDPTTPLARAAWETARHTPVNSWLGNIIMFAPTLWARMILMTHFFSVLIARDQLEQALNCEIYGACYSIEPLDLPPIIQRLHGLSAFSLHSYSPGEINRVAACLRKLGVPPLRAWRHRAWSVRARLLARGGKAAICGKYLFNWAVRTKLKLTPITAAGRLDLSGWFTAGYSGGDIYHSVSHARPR
Method: (§1) Either two-fold serial dilutions (fractional inhibition assay) or a narrower range of dilutions spanning the IC50 of the inhibitor (tight binding assay) of the inhibitors were incubated with 20 mM Tris-Cl pH 7.4, 2 mM MnCl2, 1 mM dithiothreitol, 1 mM ethylene diamine tetraacetic acid (EDTA), 60 to 125 μM GTP and 20 to 50 nM Δ21 NS5B (HCV Strain 1B (BK, Genbank accession number M58335, or H77, Genbank accession number AF011751)) for 15 min at room temperature. The reaction was initiated by the addition of 20 μM CTP, 20 μM ATP, 1 μM ^3H-UTP (10 mCi/umol), 5 nM template RNA and 0.1 U/μl RNase inhibitor (RNasin, Promega), and allowed to proceed for 2 to 4 h at room temperature. Reaction volume was 50 μl. The reaction was terminated by the addition of 1 volume of 4 mM spermine in 10 mM Tris-Cl pH 8.0, 1 mM EDTA. After incubation for at least 15 min at room temperature, the precipitated RNA was captured by filtering through a GF/B filter (Millipore) in a 96 well format. The filter plate was washed three times with 200 μl each of 2 mM spermine, 10 mM Tris-Cl pH 8.0, 1 mM EDTA, and 2 times with ethanol. After air-drying, 30 μl of Microscint 20 scintillation cocktail (Packard) was added to each well, and the retained cpm were determined by scintillation counting. […] Retained cpm were plotted vs. inhibitor concentration and fit to equation 1 using non-linear regression (ref. 1) to obtain the IC50 values: Retained cpm=A[sqrt{(IC50+It−Et)^2+4*IC50*Et}−(IC50+It−Et)]
(§2) Ref. Morrison, J. F. and S. R. Stone. 1985. Approaches to the study and analysis of the inhibition of enzymes by slow- and tight-binding inhibitors. Comments Mol. Cell. Biophys. 2: 347-368.
(§3) The sequence of the template RNA used was: 5′-[…] […] […] […] […] […] […] […] […] […] […] […] […] […] […] […] […]-3′ (SEQ ID NO:1).

[4] = target: T2, HCV polymerase 1B (Δ21 NS5B, HCV Strain 1B BK) (Hepatitis C virus genotype 1b, UniProt P26663); assay: biochemical
T2 construct: 20 to 50 nM Δ21 NS5B
T2 sequence (P26663 2420-2989, stated change not applied): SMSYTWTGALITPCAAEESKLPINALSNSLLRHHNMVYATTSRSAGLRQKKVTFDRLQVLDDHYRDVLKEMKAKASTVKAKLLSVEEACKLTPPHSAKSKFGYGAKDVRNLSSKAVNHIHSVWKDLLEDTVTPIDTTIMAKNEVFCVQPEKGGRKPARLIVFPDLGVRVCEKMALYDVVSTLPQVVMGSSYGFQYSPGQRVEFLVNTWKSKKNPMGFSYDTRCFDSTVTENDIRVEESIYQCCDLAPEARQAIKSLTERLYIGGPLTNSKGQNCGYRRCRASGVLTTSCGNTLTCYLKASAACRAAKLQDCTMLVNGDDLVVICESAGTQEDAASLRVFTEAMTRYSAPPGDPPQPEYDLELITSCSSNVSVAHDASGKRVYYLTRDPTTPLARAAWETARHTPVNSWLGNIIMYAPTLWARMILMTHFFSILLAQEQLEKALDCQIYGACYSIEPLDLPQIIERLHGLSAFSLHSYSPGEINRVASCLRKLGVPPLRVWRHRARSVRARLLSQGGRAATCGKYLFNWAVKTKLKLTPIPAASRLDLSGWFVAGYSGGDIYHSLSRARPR
Method: as §1, §2, §3

[5] = replicon 1a-H77, luciferase, three days
[6] = replicon 1b-Con1, luciferase, three days

`COc1c(/C=C/c2ccc(NS(C)(=O)=O)cc2C(=O)N(C)C2CCS(=O)(=O)C2)cc(-n2ccc(=O)[nH]c2=O)cc1C(C)(C)C` (stereo not shown) [IB-L1-1.18, 2-{(E)-2-[3-tert-butyl-5-(2,4-dioxo-3,4-dihydro-2H-pyrimidin-1-yl)-2-methoxy-phenyl]-vinyl}-N-(1,1-dioxo-tetrahydro-1lambda*6*-thiophen-3-yl)-5-methanesulfonylamino-N-methyl-benzamide] was tested, and the EC50 [1] was 10 to 100 nM, the EC50 [2] was 10 to 100 nM and the IC50 [3] was less than 10 nM. The IC50 [4] was 10 to 100 nM.
`CO/N=C/c1cc(NS(C)(=O)=O)ccc1/C=C/c1cc(-n2ccc(=O)[nH]c2=O)cc(C(C)(C)C)c1OC` [IB-L1-1.19, N-(4-(3-tert-butyl-5-(2,4-dioxo-3,4-dihydropyrimidin-1(2H)-yl)-2-methoxystyryl)-3-((E)-(methoxyimino)methyl)phenyl)methanesulfonamide] was tested, and the EC50 [1] was 10 to 100 nM, the EC50 [2] was less than 10 nM and the IC50 [3] was less than 10 nM. The IC50 [4] was 10 to 100 nM.
In the case of `COc1c(/C=C/c2ccc(NS(C)(=O)=O)cc2)cc(-n2cc(Cl)c(=O)[nH]c2=O)cc1C(C)(C)C` [IB-L1-1.20, N-(4-{(E)-2-[3-tert-butyl-5-(5-chloro-2,4-dioxo-3,4-dihydro-2H-pyrimidin-1-yl)-2-methoxyphenyl]-vinyl}-phenyl)-methanesulfonamide], the EC50 [1, 5] is reported as 10 to 100 nM, the EC50 [2, 6] is reported as less than 10 nM and the IC50 [3] is reported as less than 10 nM. It also gave an IC50 [4] of 10 to 100 nM.
For `COc1c(/C=C/c2ccc(NS(C)(=O)=O)cc2C(N)=O)cc(-n2ccc(=O)[nH]c2=O)cc1C(C)(C)C` [IB-L1-1.21, 2-{(E)-2-[3-tert-butyl-5-(2,4-dioxo-3,4-dihydro-2H-pyrimidin-1-yl)-2-methoxy-phenyl]-vinyl}-5-methanesulfonylamino-benzamide], the EC50 [1] was 10 to 100 nM, the EC50 [2] was less than 10 nM and the IC50 [3] was less than 10 nM. For the same molecule, the IC50 [4] was 10 to 100 nM.
With `COc1c(/C=C/c2ccc(NS(C)(=O)=O)cc2C(=O)N2CCC2)cc(-n2ccc(=O)[nH]c2=O)cc1C(C)(C)C` [IB-L1-1.22, N-(3-(azetidine-1-carbonyl)-4-{(E)-2-[3-tert-butyl-5-(2,4-dioxo-3,4-dihydro-2H-pyrimidin-1-yl)-2-methoxy-phenyl]-vinyl}-phenyl)-methanesulfonamide] the EC50 [1] was 10 to 100 nM, the EC50 [2] was less than 10 nM and the IC50 [3] was 10 to 100 nM. It also gave an IC50 [4] of 10 to 100 nM.
Molecule `COc1c(/C=C/c2ccc(NS(C)(=O)=O)cc2C(=O)N2CCOCC2)cc(-n2ccc(=O)[nH]c2=O)cc1C(C)(C)C` [IB-L1-1.23, (E)-N-(4-(3-tert-butyl-5-(2,4-dioxo-3,4-dihydropyrimidin-1(2H)-yl)-2-methoxystyryl)-3-(morpholine-4-carbonyl)phenyl)methanesulfonamide] has an EC50 [1] of 100 to 1000 nM, an EC50 [2] of less than 10 nM and an IC50 [3] of 10 to 100 nM. It also gave an IC50 [4] of 10 to 100 nM.
`COCCN(C)C(=O)c1cc(NS(C)(=O)=O)ccc1/C=C/c1cc(-n2ccc(=O)[nH]c2=O)cc(C(C)(C)C)c1OC` [IB-L1-1.24, 2-{(E)-2-[3-tert-butyl-5-(2,4-dioxo-3,4-dihydro-2H-pyrimidin-1-yl)-2-methoxy-phenyl]-vinyl}-5-methanesulfonylamino-N-(2-methoxy-ethyl)-N-methyl-benzamide] gave an EC50 [1] of 10 to 100 nM, an EC50 [2] of less than 10 nM and an IC50 [3] of 10 to 100 nM. It also gave an IC50 [4] of 10 to 100 nM.
With `COc1c(/C=C/c2ccc(NS(C)(=O)=O)cc2COC(C)C)cc(-n2ccc(=O)[nH]c2=O)cc1C(C)(C)C` [IB-L1-1.25, N-(4-{(E)-2-[3-tert-butyl-5-(2,4-dioxo-3,4-dihydro-2H-pyrimidin-1-yl)-2-methoxy-phenyl]-vinyl}-3-isopropoxymethyl-phenyl)-methanesulfonamide] the EC50 [1] was 10 to 100 nM, the EC50 [2] was less than 10 nM and the IC50 [3] was 10 to 100 nM. For the same molecule, the IC50 [4] was 10 to 100 nM.
`COc1c(/C=C/c2ccc(NS(C)(=O)=O)cc2-c2ncco2)cc(-n2ccc(=O)[nH]c2=O)cc1C(C)(C)C` [IB-L1-1.26, (E)-N-(4-(3-tert-butyl-5-(2,4-dioxo-3,4-dihydropyrimidin-1(2H)-yl)-2-methoxystyryl)-3-(oxazol-2-yl)phenyl)methanesulfonamide] gave an EC50 [1] of 10 to 100 nM, an EC50 [2] of less than 10 nM and an IC50 [3] of 10 to 100 nM. For the same molecule, the IC50 [4] was 10 to 100 nM.
For `COc1c(/C=C/c2ccc(NS(C)(=O)=O)cc2C(=O)N2CCCC2)cc(-n2ccc(=O)[nH]c2=O)cc1C(C)(C)C` [IB-L1-1.27, N-[4-{(E)-2-[3-tert-butyl-5-(2,4-dioxo-3,4-dihydro-2H-pyrimidin-1-yl)-2-methoxy-phenyl]-vinyl}-3-(pyrrolidine-1-carbonyl)-phenyl]-methanesulfonamide], the EC50 [1] was 10 to 100 nM, the EC50 [2] was less than 10 nM and the IC50 [3] was 10 to 100 nM. It also gave an IC50 [4] of 10 to 100 nM.
`COc1c(/C=C/c2ccc(NS(C)(=O)=O)cc2N)cc(-n2ccc(=O)[nH]c2=O)cc1C(C)(C)C` [IB-L1-1.28, (E)-N-(3-amino-4-(3-tert-butyl-5-(2,4-dioxo-3,4-dihydropyrimidin-1(2H)-yl)-2-methoxystyryl)phenyl)methanesulfonamide] was tested, and the EC50 [1] was less than 10 nM, the EC50 [2] was less than 10 nM and the IC50 [3] was 10 to 100 nM. For the same molecule, the IC50 [4] was 10 to 100 nM.
`COc1c(/C=C/c2ccc(NS(C)(=O)=O)cc2CN2CC(O)C2)cc(-n2ccc(=O)[nH]c2=O)cc1C(C)(C)C` [IB-L1-1.29, N-[4-{(E)-2-[3-tert-butyl-5-(2,4-dioxo-3,4-dihydro-2H-pyrimidin-1-yl)-2-methoxy-phenyl]-vinyl}-3-(3-hydroxy-azetidin-1-ylmethyl)-phenyl]-methanesulfonamide] gave an EC50 [1] of 100 to 1000 nM, an EC50 [2] of 100 to 1000 nM and an IC50 [3] of 10 to 100 nM. It also gave an IC50 [4] of 10 to 100 nM.
`CCOc1c(/C=C/c2ccc(NS(C)(=O)=O)cc2)cc(-n2ccc(=O)[nH]c2=O)cc1C(C)(C)C` [IB-L1-1.30, (E)-N-(4-(3-tert-butyl-5-(2,4-dioxo-3,4-dihydropyrimidin-1(2H)-yl)-2-ethoxystyryl)phenyl)methanesulfonamide] was tested, and the EC50 [1, 5] was 100 to 1000 nM, the EC50 [2, 6] was 10 to 100 nM and the IC50 [3] was 10 to 100 nM. It also gave an IC50 [4] of 10 to 100 nM.
With `COc1c(/C=C/c2ccc(NS(C)(=O)=O)cc2CNCCC(C)C)cc(-n2ccc(=O)[nH]c2=O)cc1C(C)(C)C` [IB-L1-1.31, (E)-N-(4-(3-tert-butyl-5-(2,4-dioxo-3,4-dihydropyrimidin-1(2H)-yl)-2-methoxystyryl)-3-((isopentylamino)methyl)phenyl)methanesulfonamide] the EC50 [1] was greater than 1000 nM, the EC50 [2] was greater than 1000 nM and the IC50 [3] was 10 to 100 nM. The IC50 [4] was 100 to 1000 nM.
Molecule `COc1c(/C=C/c2ccc(NS(C)(=O)=O)cc2NC(=O)OC(C)(C)C)cc(-n2ccc(=O)[nH]c2=O)cc1C(C)(C)C` [IB-L1-1.32, (E)-tert-butyl 2-(3-tert-butyl-5-(2,4-dioxo-3,4-dihydropyrimidin-1(2H)-yl)-2-methoxystyryl)-5-(methylsulfonamido)phenylcarbamate] has an EC50 [1] of 100 to 1000 nM, an EC50 [2] of 10 to 100 nM and an IC50 [3] of 100 to 1000 nM. The IC50 [4] was 100 to 1000 nM.
In the case of `COc1c(/C=C/c2ccc(NS(C)(=O)=O)cc2CN2CCCC2)cc(-n2ccc(=O)[nH]c2=O)cc1C(C)(C)C` [IB-L1-1.33, N-(4-{(E)-2-[3-tert-Butyl-5-(2,4-dioxo-3,4-dihydro-2H-pyrimidin-1-yl)-2-methoxy-phenyl]-vinyl}-3-pyrrolidin-1-ylmethyl-phenyl)-methanesulfonamide], the EC50 [1] is reported as 100 to 1000 nM, the EC50 [2] is reported as 10 to 100 nM and the IC50 [3] is reported as 100 to 1000 nM. The IC50 [4] was 100 to 1000 nM.
With `COc1c(/C=C\c2ccc(NS(C)(=O)=O)cc2)cc(-n2ccc(=O)[nH]c2=O)cc1C(C)(C)C` [IB-L1-1.34, N-(4-{(Z)-2-[3-tert-Butyl-5-(2,4-dioxo-3,4-dihydro-2H-pyrimidin-1-yl)-2-methoxy-phenyl]-vinyl}-phenyl)-methanesulfonamide] the EC50 [1] was 10 to 100 nM, the EC50 [2] was less than 10 nM and the IC50 [3] was greater than 1000 nM. It also gave an IC50 [4] greater than 1000 nM.
In the case of `COc1c(/C=C/c2ccc(NS(C)(=O)=O)cc2)cc(-n2ccc(=O)[nH]c2=O)cc1C(C)(C)CO` [IB-L1-1.45, (E)-N-(4-(5-(2,4-dioxo-3,4-dihydropyrimidin-1(2H)-yl)-3-(1-hydroxy-2-methylpropan-2-yl)-2-methoxystyryl)phenyl)methanesulfonamide], the EC50 [1, 5] is reported as 10 to 100 nM, the EC50 [2, 6] is reported as less than 10 nM and the IC50 [3] is reported as less than 10 nM. For the same molecule, the IC50 [4] was 10 to 100 nM.
With `COc1c(/C=C/c2ccc(NS(C)(=O)=O)cc2)cc(-n2ccc(=O)[nH]c2=O)cc1-c1ccco1` [IB-L1-1.46, (E)-N-(4-(5-(2,4-dioxo-3,4-dihydropyrimidin-1(2H)-yl)-3-(furan-2-yl)-2-methoxystyryl)phenyl)methanesulfonamide] the EC50 [1, 5] was 100 to 1000 nM, the EC50 [2, 6] was less than 10 nM and the IC50 [3] was 10 to 100 nM. The IC50 [4] was 10 to 100 nM.

Reference: US8178548B2, “Anti-infective agents and uses thereof” (priority 2007, dated 2012)
